Data reported in patent US11459358B2, “Substances for targeting various selected organs or tissues” (BioMarin Technologies B.V., priority 2016, dated 2022).
“Also recorded” adds a separate entry of the source.

Tests used:
Human control myotubes = experiment: Uptake of FITC-labeled peptides in human control myotubes, fluorescence microscopy; format: cell-based; details: 2.25 μM FITC-labeled peptide
Procedure: Human control myoblasts (Km155.c25 cells, (Zhu et al., 2007)) were grown in skeletal muscle cell growth medium (Promocell, C-23160) supplemented with an extra 15% FBS (from, Gibco, the Netherlands) and 50 μg/ml gentamicin (PAA Laboratories) in uncoated flasks until 70-80% confluence was reached. Cells were plated in a 6 wells plate with 0.5% gelatin coated glass slides (Sigma Aldrich, the Netherlands), at a density of 1×10^5 cells per well, 48 hours prior to differentiation. Reaching 90% confluence, medium was switched to differentiation medium (Dulbecco's medium (without phenol red) with 2% FBS, 50 μg/ml gentamicin, 2% glutamax and 1% glucose (all from Gibco-BRL, the Netherlands)). Cells were allowed to differentiate for 3-5d.
(§1) Fluorescently labeled peptides were labeled using fluorescein isothiocyanate (FITC) and were obtained from Pepscan (Lelystad, the Netherlands). The FITC-label was attached to an Ahx (6-aminohexanoic acid) spacer which was added to the N-terminal end of the peptide, the C-terminal part was amidated and peptides were made circular by disulfide cyclization. Peptides according to the invention had cysteine flanking moieties wherein the flanking moieties were directly adjacent to the targeting sequences SEQ ID NOs: 14-25.
Human control myotubes and primary human cardiomyocytes were washed 2 times with PBS and incubated with 2.25 μM of FITC-labeled peptides in serum free media for 3 h at 37° C. and 5% CO2. Cells were washed 3 times with PBS and fixed with cold methanol (−20° C.) for 5 min (human control myotubes) or 10 min (human cardiomyocytes). Subsequently the glass slides were shortly air dried, and embedded on microscope slides with Vectashield hard set with 4′,6-diamidino-2-phenylindole (DAPI) mounting media (Vector laboratories). After drying 30 min, slides were analyzed with fluorescence microscopy (Leica DM5500 B) using a CCD camera (Leica DFC 360 FX). Representative pictures are shown. […]
The linear versions of the peptides comprising SEQ ID NO: 24 or SEQ ID NO: 25, in which the Cys residues were replaced with Ala residues, were labelled as described above and incubated with human control myotubes for 3 h (FIG. 3d).

human cardiomyocytes = experiment: Uptake of FITC-labeled peptides in human cardiomyocytes, fluorescence microscopy; format: cell-based; details: 2.25 μM FITC-labeled peptide
Procedure: Immortalized human cardiomyocytes (applied biological materials, Canada) were grown in Prigrow I medium supplemented with 10% FBS and 1% P/S in collagen coated flasks. Cells were plated in collagen coated glass slides in 6 wells plates and grown until confluence prior to experiments.
as §1
Human control myotubes and primary human cardiomyocytes were washed 2 times with PBS and incubated with 2.25 μM of FITC-labeled peptides in serum free media for 3 h at 37° C. and 5% CO2. Cells were washed 3 times with PBS and fixed with cold methanol (−20° C.) for 5 min (human control myotubes) or 10 min (human cardiomyocytes). Subsequently the glass slides were shortly air dried, and embedded on microscope slides with Vectashield hard set with 4′,6-diamidino-2-phenylindole (DAPI) mounting media (Vector laboratories). After drying 30 min, slides were analyzed with fluorescence microscopy (Leica DM5500 B) using a CCD camera (Leica DFC 360 FX). Representative pictures are shown.
FITC-labeled peptides comprising SEQ ID NO:24 or SEQ ID NO: 25 were incubated at a dose of 2.25 μM, slides were imbedded in mounting media containing DAPI and analyzed with Leica microscopy using a CCD camera (Leica DFC 360 FX); Human control myotubes for 1 or 3 h (FIG. 3a) and human cardiomyocytes for 3 h (FIG. 3b).

Substance	fluorescence in the cells (Human control myotubes; 1 h)	fluorescence in the cells (Human control myotubes; 3 h)	fluorescence in the cells (Human control myotubes; 3 h, listed as SEQ ID NO:24)	fluorescence in the cells (human cardiomyocytes; 3 h)	fluorescence in the cells (human cardiomyocytes; 3 h, listed as SEQ ID NO:24)	fluorescence in the cells (Human control myotubes; 10 minutes)	fluorescence in the cells (human cardiomyocytes; 10 minutes)
SEQ ID NO: 24: FITC-Ahx N-terminal, C-terminal amide, disulfide-cyclized peptide with Cys residues flanking targeting sequence LNSLFGS (N-terminal FITC-Ahx, C-terminal amide, disulfide cyclized; Randomly generated peptide)	clear fluorescence throughout the cells and in the nuclei	Brightest fluorescence	clear fluorescence throughout the cells and in the nuclei	Brightest fluorescence	clear fluorescence throughout the cells and in the nuclei	–	–
SEQ ID NO: 25: FITC-Ahx N-terminal, C-terminal amide, disulfide-cyclized peptide with Cys residues flanking targeting sequence QLFPLFR (N-terminal FITC-Ahx, C-terminal amide, disulfide cyclized; Randomly generated peptide)	clear fluorescence throughout the cells and in the nuclei	Brightest fluorescence; also recorded: clear fluorescence throughout the cells and in the nuclei	–	Brightest fluorescence; also recorded: clear fluorescence throughout the cells and in the nuclei	–	positive fluorescence	positive fluorescence
